The text below walks through data of patent publication US11180487B2, “Substituted cyanoindoline derivatives as NIK inhibitors” (Janssen Pharmaceutica NV, priority 2016, dated 2021).

Each structure is given as a SMILES string. Read-outs that look alike come from different tables or passages of the source. Some results are limits rather than exact numbers.

Test [1] concerns the target recombinant human NF-kappaB-inducing kinase (NIK/MAP3K14) (Homo sapiens, UniProt Q99558). In words: Inhibition of auto-phosphorylation of recombinant human NIK/MAP3K14 activity (AlphaScreen), Biological Assay A. The class given is biochemical. The settings on record: averaged values over all measurements on all batches. The gist of the method:
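GST-tagged enzyme (0.2 nM) incubated with compound and 25 μM ATP in 50 mM Tris pH 7.5, 5 mM MgCl2, 1 mM EGTA, 1 mM DTT, 0.1 mM Na3VO4, 1% DMSO, 1 h at 25 °C. Stopped with anti-phospho-IKK Ser176/180 antibody; AlphaScreen bead read, blank-subtracted, IC50 from sigmoidal fit.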
A general note: In Alpha technology, singlet oxygen from a donor bead excites a nearby acceptor bead.

Test [2] has as its system P-IKKα levels in L363 (NIK translocated multiple myeloma) cells. The test can be described thus: Effect of compounds on P-IKKα levels in L363 cells (Mesoscale sandwich immuno-assay), Biological Assay B. The class given is cell-based, human. The settings on record: 2 hr treatment, averaged values, read-out: Inhibition of pIKKα_L-363 (IC50 (nM)). The method, then: Effect of Compounds on P-IKKα Levels in L363 (NIK Translocated Multiple Myeloma) Cells
All compounds tested were dissolved in DMSO and further dilutions were made in culture medium. Final DMSO concentration was 1% (v/v) in cell assays. The human L363 cells (ATCC) were cultured in RPMI 1640 medium supplemented with GlutaMax and 10% fetal calf serum (PAA). Cells were routinely maintained at densities of 0.2×10^6 cells per ml-1×10^6 cells per ml at 37° C. in a humidified 5% CO2 atmosphere. Cells were passaged twice a week splitting back to obtain the low density. Cells were seeded in 96 well plates (Nunc 167008) at 2×10^6 per ml media in a volume of 75 μl per well plus 25 μl 1 μg/ml recombinant human B-cell activating factor (BAFF/BLyS/TNFSF13B). Seeded cells were incubated at 37° C. in a humidified 5% CO2 atmosphere for 24 hr. Drugs and/or solvents were added (20 μl) to a final volume of 120 μl. Following 2 hr treatment plates were removed from the incubator and cell lysis was achieved by the addition of 30 μl 5× lysis buffer followed by shaking on a plate shaker at 4° C. for 10 min. At the end of this incubation lysed cells were centrifuged at 800×g for 20 min at 4° C. and the lysate was assessed for P-IKKα levels by sandwich immuno-assay carried out in anti-rabbit antibody coated Mesoscale plates. Within an experiment, the results for each treatment were the mean of 2 replicate wells. For initial screening purposes, compounds were tested using an 8 point dilution curve (serial 1:3 dilutions). For each experiment, controls (containing MG132 and BAFF but no test drug) and a blank incubation (containing MG132 and BAFF and 10 μM ADS125117, a test concentration known to give full inhibition) were run in parallel. The blank incubation value was subtracted from all control and sample values. To determine the IC50 a sigmoidal curve was fitted to the plot of % inhibition of control P-IKKα levels versus Log10 compound concentration.
Note: Compounds 237 and 238 were tested at a maximum top concentration of 823 nM.

Test [3] has as its system JJN-3 (NIK translocated) multiple myeloma cells. In words: Antiproliferative activity on JJN-3 multiple myeloma cells (CellTiter-Glo, 96 hr), Biological Assay C. Conditions: JJN-3 (NIK translocated) cells, averaged values, read-out: JJN-3 Proliferation inhibition (IC50 (nM)). In kind it is cell-based, human. A digest of the protocol: (§1)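 JJN-3 and KMS12-BM cells in RPMI 1640 with 10% FCS were plated at 15000–20000 cells/well and treated 96 h with a 9-point 1:3 dilution series (0.3% DMSO). Viability read by CellTiter-Glo luminescence, blank (time-zero cells) subtracted, expressed as % of untreated control; duplicate wells.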
Background: In ATP-based viability assays light output follows the ATP content of the culture.

Test [4] deals with KMS12-BM (NIK WT) multiple myeloma cells. The test can be described thus: Antiproliferative activity on KMS12-BM multiple myeloma cells (CellTiter-Glo, 96 hr), Biological Assay C. In kind it is cell-based, human. The settings on record: averaged values, read-out: KMS-12 Proliferation inhibition (IC50 (nM)). A digest of the protocol:
as §1

Chain of recombinant human NF-kappaB-inducing kinase (NIK/MAP3K14) (Q99558 whole entry): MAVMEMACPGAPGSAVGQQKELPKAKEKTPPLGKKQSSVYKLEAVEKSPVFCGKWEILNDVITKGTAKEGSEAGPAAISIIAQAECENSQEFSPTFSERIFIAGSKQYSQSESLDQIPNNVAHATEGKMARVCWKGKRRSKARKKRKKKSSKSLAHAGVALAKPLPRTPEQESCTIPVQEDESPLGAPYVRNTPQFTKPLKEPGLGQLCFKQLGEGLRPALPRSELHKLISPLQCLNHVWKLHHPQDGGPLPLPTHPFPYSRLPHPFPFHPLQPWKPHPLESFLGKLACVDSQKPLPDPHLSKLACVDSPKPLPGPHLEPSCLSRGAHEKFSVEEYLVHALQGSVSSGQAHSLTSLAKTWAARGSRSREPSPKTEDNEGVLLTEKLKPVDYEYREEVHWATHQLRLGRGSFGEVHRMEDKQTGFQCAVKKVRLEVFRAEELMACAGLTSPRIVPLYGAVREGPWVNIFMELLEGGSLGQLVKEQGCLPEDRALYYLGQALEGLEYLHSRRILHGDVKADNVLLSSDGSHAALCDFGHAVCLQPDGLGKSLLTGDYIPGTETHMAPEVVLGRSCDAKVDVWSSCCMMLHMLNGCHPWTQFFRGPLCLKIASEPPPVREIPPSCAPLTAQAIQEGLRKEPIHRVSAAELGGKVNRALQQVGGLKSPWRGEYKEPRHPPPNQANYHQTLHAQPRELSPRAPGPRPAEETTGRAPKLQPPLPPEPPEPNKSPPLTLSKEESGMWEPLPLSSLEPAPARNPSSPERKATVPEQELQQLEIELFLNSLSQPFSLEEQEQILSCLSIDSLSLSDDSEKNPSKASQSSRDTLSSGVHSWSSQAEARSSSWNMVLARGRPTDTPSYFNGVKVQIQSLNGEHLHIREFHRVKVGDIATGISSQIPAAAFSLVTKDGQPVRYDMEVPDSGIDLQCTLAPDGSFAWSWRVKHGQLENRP

On to `C[C@]1(CO)CNc2c(C#N)cc(-c3ccnc(Nc4ccc(S(C)(=O)=O)cc4CCC4CC4)n3)cc21` [Compound 2], for which the IC50 was 4.3 nM in test [1]; 4.8 nM in test [2] (Homo sapiens, L-363, 2 h); 58 nM in test [3] (Homo sapiens, JJN-3, 96 h); > 10000 nM in test [4] (Homo sapiens, KMS-12-BM, 96 h).
On to `CCCCCc1cc(S(C)(=O)=O)ccc1Nc1nccc(-c2cc(C#N)c3c(c2)[C@@](C)(CO)CN3)n1` [Compound 3], for which the IC50 was 10.2 nM in test [1]; 15.1 nM in test [2] (Homo sapiens, L-363, 2 h); 115 nM in test [3] (Homo sapiens, JJN-3, 96 h); > 10000 nM in test [4] (Homo sapiens, KMS-12-BM, 96 h).
On to `CNC(=O)c1ccc(C)c(Nc2nccc(-c3cc(C#N)c4c(c3)[C@@](C)(CO)CN4)n2)c1` [Compound 4], for which the IC50 in test [1] was 4.2 nM; in test [2] (Homo sapiens, L-363, 2 h) it was 20.9 nM; in test [3] (Homo sapiens, JJN-3, 96 h) it was 759 nM; in test [4] (Homo sapiens, KMS-12-BM, 96 h) it was > 10000 nM.
Turning to `C[C@]1(CO)CNc2c(C#N)cc(-c3ccnc(Nc4cc(C#N)ccc4OC4CC4)n3)cc21` [Compound 10], the IC50 amounted to 7.4 nM in test [1]; 11.5 nM in test [2] (Homo sapiens, L-363, 2 h); 67 nM in test [3] (Homo sapiens, JJN-3, 96 h); 1230 nM in test [4] (Homo sapiens, KMS-12-BM, 96 h).
As for `Cc1cc(F)c(C#N)cc1Nc1nccc(-c2cc(C#N)c3c(c2)[C@@](C)(CO)CN3)n1` [Compound 11], the IC50 was 1.8 nM in test [1]; 6 nM in test [2] (Homo sapiens, L-363, 2 h); 617 nM in test [3] (Homo sapiens, JJN-3, 96 h); > 10000 nM in test [4] (Homo sapiens, KMS-12-BM, 96 h).
`CC(C)(O)COc1ccc(C#N)cc1Nc1nccc(-c2cc(C#N)c3c(c2)[C@@](C)(CO)CN3)n1` [Compound 12]: the IC50 worked out at 4.1 nM in test [1]; 25.7 nM in test [2] (Homo sapiens, L-363, 2 h); 138 nM in test [3] (Homo sapiens, JJN-3, 96 h); 4900 nM in test [4] (Homo sapiens, KMS-12-BM, 96 h).
Taken in the same sequence, the figures for `Cc1cc(P(C)(C)=O)c(Cl)cc1Nc1nccc(-c2cc(C#N)c3c(c2)[C@@](C)(CO)CN3)n1` [Compound 20] were 1.7 nM, 11.5 nM, 63 nM and ~1580 nM.
Taken in the same sequence, the figures for `COc1cc(C(=O)NC2CCOCC2)ccc1Nc1nccc(-c2cc(C#N)c3c(c2)C(C)(CO)CN3)n1` (centres unmarked) [Compound 21] were 2.5 nM, 4.5 nM, 51 nM and 891 nM.
Consider `COc1cc(N2CCC(N(C)C)CC2)c(Cl)cc1Nc1nccc(-c2cc(C#N)c3c(c2)C(C)(CO)CN3)n1` (centres unmarked) [Compound 22], for which the IC50 in test [1] was found to be 2.5 nM; in test [2] (Homo sapiens, L-363, 2 h), 11.5 nM; in test [3] (Homo sapiens, JJN-3, 96 h) it was 7 nM; in test [4] (Homo sapiens, KMS-12-BM, 96 h), 631 nM.
As for `COc1cc(CO)c(Cl)cc1Nc1nccc(-c2cc(C#N)c3c(c2)C(C)(CO)CN3)n1` (centres unmarked) [Compound 24], the IC50 is 4.5 nM in test [1]; 6 nM in test [2] (Homo sapiens, L-363, 2 h); 13 nM in test [3] (Homo sapiens, JJN-3, 96 h); 2820 nM in test [4] (Homo sapiens, KMS-12-BM, 96 h).
Take `CN1CCC(Oc2ccc(Cl)cc2Nc2nccc(-c3cc(C#N)c4c(c3)C(C)(CO)CN4)n2)CC1` (centres unmarked) [Compound 25]: the IC50 in test [1] was found to be 3.6 nM; in test [2] (Homo sapiens, L-363, 2 h), 33.9 nM; in test [3] (Homo sapiens, JJN-3, 96 h), 12 nM; in test [4] (Homo sapiens, KMS-12-BM, 96 h), 589 nM.
With `Cc1c(NC(=O)C2CCN(C)CC2)cc(Cl)cc1Nc1nccc(-c2cc(C#N)c3c(c2)[C@@](C)(CO)CN3)n1` [Compound 68], the IC50 in test [1] was found to be 0.8 nM; in test [2] (Homo sapiens, L-363, 2 h) it was 1.9 nM; in test [3] (Homo sapiens, JJN-3, 96 h), 16 nM; in test [4] (Homo sapiens, KMS-12-BM, 96 h), 1480 nM.
The corresponding values for `Cc1cc(C(=O)NC2CCOCC2)ccc1Nc1nccc(-c2cc(C#N)c3c(c2)C(C)(C)CN3)n1` [Compound 78] are 2.7 nM, 7.9 nM, 87 nM and 2040 nM.
Regarding `COc1cc(N2CCOCC2)c(Cl)cc1Nc1nccc(-c2cc(C#N)c3c(c2)C(C)(C)CN3)n1` [Compound 79], the IC50 in test [1] is 47.9 nM; in test [2] (Homo sapiens, L-363, 2 h), 75.9 nM; in test [3] (Homo sapiens, JJN-3, 96 h), 91 nM; in test [4] (Homo sapiens, KMS-12-BM, 96 h), ~5130 nM.
The corresponding values for `COc1cc(OCC(=O)N(C)C)c(Cl)cc1Nc1nccc(-c2cc(C#N)c3c(c2)C(C)(C)CN3)n1` [Compound 82] are 7.6 nM, 5.3 nM, 22 nM and > 10000 nM.
Taken in the same sequence, the figures for `COc1cc(CO)c(Cl)cc1Nc1nccc(-c2cc(C#N)c3c(c2)C(C)(C)CN3)n1` [Compound 84] were 19.1 nM, 12.9 nM, 251 nM and ~7590 nM.
For `COc1cc(S(C)(=O)=O)c(Cl)cc1Nc1nccc(-c2cc(C#N)c3c(c2)C(C)(C)CN3)n1` [Compound 85], the IC50 was 11.3 nM in test [1]; 41.7 nM in test [2] (Homo sapiens, L-363, 2 h); 57 nM in test [3] (Homo sapiens, JJN-3, 96 h); > 10000 nM in test [4] (Homo sapiens, KMS-12-BM, 96 h).
Take `CCN1CCN(Cc2cc(OC)c(Nc3nccc(-c4cc(C#N)c5c(c4)C(C)(C)CN5)n3)cc2Cl)CC1` [Compound 87]: the IC50 in test [1] amounted to 7.1 nM; in test [2] (Homo sapiens, L-363, 2 h), 93.3 nM; in test [3] (Homo sapiens, JJN-3, 96 h) it was 35 nM; in test [4] (Homo sapiens, KMS-12-BM, 96 h) it was 1180 nM.
With `Cc1ccc(C#N)cc1Nc1nccc(-c2cc(C#N)c3c(c2)[C@@](C)(CO)CN3)n1` [Compound 134], the IC50 in test [1] was 0.9 nM; in test [2] it was 2.8 nM; in test [3], 91 nM; in test [4], 5500 nM.
As to `Cc1ccc(C#N)cc1Nc1nccc(-c2cc(C#N)c3c(c2)[C@@](C)(COC(=O)[C@H](C)N)CN3)n1` [Compound 138], the IC50 in test [1] is 11.2 nM; in test [2] (Homo sapiens, L-363, 2 h), 2.1 nM; in test [3] (Homo sapiens, JJN-3, 96 h), 102 nM; in test [4] (Homo sapiens, KMS-12-BM, 96 h) it was ~4790 nM.
As to `Cc1ccc(C#N)cc1Nc1nccc(-c2cc(C#N)c3c(c2)[C@](C)(COS(=O)(=O)O)CN3)n1` [Compound 144], the IC50 was 5.8 nM in test [1]; ~1170 nM in test [2] (Homo sapiens, L-363, 2 h); ~10000 nM in test [3] (Homo sapiens, JJN-3, 96 h); > 10000 nM in test [4] (Homo sapiens, KMS-12-BM, 96 h).
As for `Cc1ccc(C#N)cc1Nc1nccc(-c2cc(C#N)c3c(c2)[C@@](C)(COC(=O)CN2CCN(C)CC2)CN3)n1` [Compound 145], the IC50 amounted to 17.4 nM in test [1] and 436 nM in test [2] (Homo sapiens, L-363, 2 h).
As to `Cc1ccc(C#N)cc1Nc1ncc(F)c(-c2cc(C#N)c3c(c2)[C@@](C)(CO)CN3)n1` [Compound 147], the IC50 in test [1] is 3.9 nM; in test [2] (Homo sapiens, L-363, 2 h) it was 1.2 nM; in test [3] (Homo sapiens, JJN-3, 96 h) it was 302 nM; in test [4] (Homo sapiens, KMS-12-BM, 96 h), > 10000 nM.
Taken in the same sequence, the figures for `[2H]C([2H])(O)c1cc(Nc2nccc(-c3cc(C#N)c4c(c3)[C@@](C)(CO)CN4)n2)c(C)cc1F` [Compound 148] were 4.7 nM, 8.9 nM, 523 nM and > 10000 nM.
`Cc1ccc(COC(C)C)cc1Nc1nccc(-c2cc(C#N)c3c(c2)[C@@](C)(CO)CN3)n1` [Compound 149]: the IC50 was determined as 10 nM in test [1] and 102 nM in test [2] (Homo sapiens, L-363, 2 h).
As to `[2H]C([2H])(O)c1ccc(C)c(Nc2nccc(-c3cc(C#N)c4c(c3)[C@@](C)(CO)CN4)n2)c1` [Compound 150], the IC50 was 0.8 nM in test [1]; 2.2 nM in test [2] (Homo sapiens, L-363, 2 h); 91 nM in test [3] (Homo sapiens, JJN-3, 96 h); > 10000 nM in test [4] (Homo sapiens, KMS-12-BM, 96 h).
For `Cc1ccc(C2CN(C)C2)cc1Nc1nccc(-c2cc(C#N)c3c(c2)[C@@](C)(CO)CN3)n1` [Compound 210], the IC50 in test [1] was 33.1 nM; in test [2] (Homo sapiens, L-363, 2 h), > 10000 nM.
In the case of `Cc1ccc(CN2CCOCC2)c(Nc2nccc(-c3cc(C#N)c4c(c3)[C@@](C)(CO)CN4)n2)c1` [Compound 222], the IC50 was 31.6 nM in test [1] and 302 nM in test [2] (Homo sapiens, L-363, 2 h).
